Legend:
[1] = Fluorescence excitation and emission spectra of camptothecin drugs free in solution and bound to liposomes; format: physicochemical; conditions: for λMAX emission, DMPG: DMPG liposomes 0.29 M; for λMAX emission, DMPG / λMAX emission, PBS / λMAX emission, DMPC: pH 7.4, 37° C.; for λMAX emission, PBS: free in PBS; for Relative Fluorescence: in PBS, pH 7.4, at excitation and emission λMAX; for λMAX excitation: pH 7.4, 2 μM drug, PBS; for λMAX emission, DMPC: DMPC liposomes 0.29 M
Excerpt: The camptothecin drugs are intrinsically intensely fluorescent. Fluorescence is associated with the extended conjugation of the quinoline ring system. The liposomes of Examples 1-7 were characterized for the presence of the camptothecin drugs, using excitation and emission spectrography, and fluorescence anisotropy.
Steady-state fluorescence measurements were obtained on a SLM Model 4800C. spectrofluorometer with a thermostated cuvette compartment. This instrument was interfaced with an IBM PS/2 model 55 SX computer. Excitation and emission spectra were recorded with an excitation resolution of 8 nm and an emission resolution of 4 nm. In all cases spectra were corrected for background fluorescence and scatter from unlabeled lipids or from solvents by subtraction of the spectrum of a blank. Steady-state fluorescence intensity measurements were made in the absence of polarizer. Steady-state anisotropy (a) measurements were determined with the instrument in the "T-format" for simultaneous measurement of two polarized intensities. The alignment of polarizers were checked routinely using a dilute suspension of 0.25 μm polystyrene microspheres from Polysciences, Inc, Warrington, Pa., in water; anisotropy values of >0.99 were obtained. The anisotropy was calculated from a=(Ivv -GlVH)/(Ivv +GIVH), where G-IVH /IHH and the subscripts refer to vertical and horizontal orientations of the excitation and emission polarizers, respectively.
Anisotropy measurements for camptothecin, camptothecin carboxylate sodium salt, and 10,11-methylenedioxycamptothecin were conducted using exciting light of 370 nm and 420 nm long wave pass filters on each emission channel in order to isolate the fluorescence signal from background scatter and signal. For topotecan a 400 nm excitation wavelength and a 500 nm emission filter were used and for 9-aminocamptothecin a 375 nm excitation and a wavelength 420 nm emission filter were used. For AMC and CMC, a 370 nm excitation wavelength and a 400 nm emission filter were used. For 10-hydroxycamptothecin 375 nm excitation wavelength 500 nm emission filter was used. Emission filters were obtained from Oriel Corp. Stamford, Conn. The combination of exciting light and emission filters allows one to adequately separate the fluorescence from the background signal. The contribution of background fluorescence, together with scattered light, was typically less than 1% of the total intensity. Since the lactone ring of the camptothecin drug undergoes hydrolysis in aqueous medium, all measurements were completed within the shortest possible time, less than 1 minute after mixing the drug stock solution with PBS or the liposomes. In each case, analysis was initiated immediately after mixing the drug stock solution with PBS or with the liposomes. All measurements were performed at 37° C. unless otherwise noted.
The relative fluorescence intensity of 1×10^-6 M of camptothecin free in PBS buffer at 37° C. is shown. The emission spectra of the camptothecin was recorded using exciting light of 370 nm.
An exciting light of 390 nm was used to record the emission spectra of topotecan. A decrease in the emission intensity is observed for topotecan associated with the DMPG liposome.
All spectra were recorded using camptothecin drug concentrations of 2
μM. The DMPC and DMPG concentrations were 0.29 M. Experiments were
conducted in PBS buffer at 37° C.
Also found in Table II is a relative index of the emission intensity levels from these camptothecin drugs in PBS at their respective excitation and emission λMAX.

[2] = Relative lipophilicity of camptothecin drugs; conditions: among drugs of Table V
[3] = HPLC assay of lactone ring hydrolysis, free in PBS or associated with liposomes or micelles; format: physicochemical
[4] = Excited-state lifetime of camptothecin; format: physicochemical; conditions: for excited state-lifetime: 37° C.
Method: The excited state-lifetime values of camptothecin free in solution was measured in PBS, glycerol, and methanol at 37° C. The lifetime values are 4.7 ns, 3.8 ns, and 3.5 ns, respectively. The average excited state-lifetime value of camptothecin when bound to DMPC liposome membrane is 3.7 ns. The measurements indicate that the excited-state lifetime of camptothecin is relatively insensitive to changes in solvent environment or to changes due to relocation of camptothecin from an aqueous environment to the lipid liposome membrane.
The picosecond fluorescence experiment were carried out with a Piridine I cavity dumped dye laser and frequency doubled light […]. The lifetime and correlation time were measured using frequency domain fluorometer operating up 10 GHz (Laczko et al., Rev. Sci. Instrum. 61: 2331, (1990)). The modulated exited light was obtained from the harmonic content of a laser pulse train with a repetition rate of 3.81 MHz and a pulse width of 5 ps. A mode locked […] Antares laser was used to pump the dye laser. The emission was observed through the cut of the filter […] by microchannel photomultiplier. The cross-correlation detection was done outside the photomultiplier tube, according to Laczko et al., Rev, Sci. Instrum. 61: 2331 (1990).

[5] = system: lung, breast, and malignant melanoma; conditions: background; cited from earlier work

Compound | λMAX emission, DMPG [1] [nm] | λMAX emission, PBS [1] [nm] | Relative Fluorescence [1] | λMAX excitation ([1]; 37° C.) [nm] | relative lipophilicity [2] | drug not hydrolysed at about 2.5 hours ([3]; SDS micelles, about 2.5 hours) | t1/2, octylphenolpolyoxyethylene micelles ([3]; octylphenolpolyoxyethylene micelles, PBS pH 7.4) [h] | λMAX emission, DMPC [1] [nm] | excited state-lifetime ([4]; PBS) [ns] | average excited state-lifetime ([4]; bound to DMPC liposome membrane) [ns] | excited state-lifetime ([4]; glycerol) [ns] | excited state-lifetime ([4]; methanol) [ns] | t1/2 drug DSPC Lip. ([3]; DSPC liposomes, pH 7.4, 37° C.) | spectral shift on association with DMPC liposomes ([1]; DMPC, relative to free drug) | blue shift of emission λmax on binding DMPG liposomes ([1]; relative to free camptothecin, 1×10^-6 M, 37° C.) | effectiveness against other experimental cancer types [5] | shifting in the emission spectrum with DMPG liposomes ([1]; 1 μM, DMPG liposomes)
CCC1(O)C(=O)OCc2c1cc1n(c2=O)Cc2cc3c(Cl)c4c(cc3nc2-1)OCO4 (stereo not drawn) [9-chloro-10,11-methylenedioxycamptothecin] | 417 | 410 | 1 | 394 | most lipophilic | – | – | – | – | – | – | – | – | – | – | – | –
CCC1(O)C(=O)OCc2c1cc1n(c2=O)Cc2cc3cc4c(cc3nc2-1)OCO4 (stereo not drawn) [10,11-methylenedioxycamptothecin] | 408 | 410 | 1 | 395 | – | about 75% | 1.5 | 408 | – | – | – | – | – | – | – | – | –
CCC1(O)C(=O)OCc2c1cc1n(c2=O)Cc2cc3cc(O)ccc3nc2-1 (stereo not drawn) [10-hydroxycamptothecin] | 550 | 561 | 0.5 | 392 | – | – | – | 558 | – | – | – | – | – | – | – | – | –
CC[C@@]1(O)C(=O)OCc2c1cc1n(c2=O)Cc2cc3ccccc3nc2-1 [camptothecin] | 422 | 438 | 1 | 366 | – | – | – | 433 | 4.7 | 3.7 | 3.8 | 3.5 | ~ 100 min. | about 5 nm | about 16 nm | effective against other experimental cancer types such as lung, breast, and malignant melanoma | –
CC[C@@]1(O)C(=O)OCc2c1cc1n(c2=O)Cc2cc3c(CN(C)C)c(O)ccc3nc2-1 [topotecan] | 533 | 537 | 1 | 410 | – | – | – | 538 | – | – | – | – | – | – | – | – | Only a slight shifting in the emission spectrum

From patent publication US5552156A, “Liposomal and micellular stabilization of camptothecin drugs” (Ohio State University, priority 1995, dated 1996)
